Source: PubChem BioAssay AID1963978 (Molecular Pharmacology Branch, DTP, NCI, 2024)
Values joined by “and” are separate entries in the source; they are usually repeats but may differ in a detail not shown here. Equal entries are not always repeated.

Tested on: 616215-338-R-J1-PDC spheroids with HUVEC/MSC, viability
Assay: Anticancer human tumor 616215-338-R-J1-PDC patient-derived colon adenocarcinoma cell line growth inhibition [PI3K]
Settings: for viability, T/C: stronger effect = lower value
Summary of the method: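 We assembled tumor spheroids that included a stromal compartment of HUVEC and MSCs, then exposed them to targeted agents alone and together with PI3K pathway inhibitors. Concentration series descended by half-log from clinically achievable Cmax levels. Viability served as the endpoint.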

[1] = curve of first compound, second compound 0.00316 µM
[2] = curve of first compound, second compound 0.01 µM
[3] = curve of first compound, second compound 0.0316 µM
[4] = curve of first compound, second compound 0.1 µM
[5] = curve of first compound, second compound 0.316 µM
[6] = curve of first compound, second compound 1 µM
[7] = second compound 0.00316 µM, first compound 0.0316 µM
[8] = second compound 0.00316 µM, first compound 0.1 µM
[9] = second compound 0.00316 µM, first compound 0.316 µM
[10] = second compound 0.00316 µM, first compound 1 µM
[11] = second compound 0.00316 µM, first compound 3.16 µM
[12] = second compound 0.00316 µM, first compound 10 µM
[13] = second compound 0.01 µM, first compound 0.0316 µM
[14] = second compound 0.01 µM, first compound 0.1 µM
[15] = second compound 0.01 µM, first compound 0.316 µM
[16] = second compound 0.01 µM, first compound 1 µM
[17] = second compound 0.01 µM, first compound 3.16 µM
[18] = second compound 0.01 µM, first compound 10 µM
[19] = second compound 0.0316 µM, first compound 0.0316 µM
[20] = second compound 0.0316 µM, first compound 0.1 µM
[21] = second compound 0.0316 µM, first compound 0.316 µM
[22] = second compound 0.0316 µM, first compound 1 µM
[23] = second compound 0.0316 µM, first compound 3.16 µM
[24] = second compound 0.0316 µM, first compound 10 µM
[25] = second compound 0.1 µM, first compound 0.0316 µM
[26] = second compound 0.1 µM, first compound 0.1 µM
[27] = second compound 0.1 µM, first compound 0.316 µM
[28] = second compound 0.1 µM, first compound 1 µM
[29] = second compound 0.1 µM, first compound 3.16 µM
[30] = second compound 0.1 µM, first compound 10 µM
[31] = second compound 0.316 µM, first compound 0.0316 µM
[32] = second compound 0.316 µM, first compound 0.1 µM
[33] = second compound 0.316 µM, first compound 0.316 µM
[34] = second compound 0.316 µM, first compound 1 µM
[35] = second compound 0.316 µM, first compound 3.16 µM
[36] = second compound 0.316 µM, first compound 10 µM
[37] = second compound 1 µM, first compound 0.0316 µM
[38] = second compound 1 µM, first compound 0.1 µM
[39] = second compound 1 µM, first compound 0.316 µM
[40] = second compound 1 µM, first compound 1 µM
[41] = second compound 1 µM, first compound 3.16 µM
[42] = second compound 1 µM, first compound 10 µM
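Further: spheroids exposed to agents for seven days before the viability read.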

## CC(Nc1ccc2c(c1)OCCn1cc(N3C(=O)OCC3C(F)F)nc1-2)C(N)=O (stereo not given)
Compound 0.00316 µM
  viability, T/C: 94.5% [middle of 8 runs]
Compound 0.01 µM
  viability, T/C: 96.4% [middle of 8 runs]
Compound 0.0316 µM
  viability, T/C: 100% [middle of 8 runs]
Compound 0.1 µM
  viability, T/C: 97.1% [middle of 8 runs]
Compound 0.316 µM
  viability, T/C: 98.8% [middle of 8 runs]
Compound 1 µM
  viability, T/C: 105% [middle of 8 runs]
Compound alone, run of 05/08/2023
  IC50: > 1 µM

## C#Cc1c(F)ccc2cc(O)cc(-c3ncc4c(N5CC6CCC(C5)N6)nc(OCC56CCCN5CC(F)C6)nc4c3F)c12 (stereo not given) + CC(Nc1ccc2c(c1)OCCn1cc(N3C(=O)OCC3C(F)F)nc1-2)C(N)=O
[1]
  IC50: > 10 µM
[2]
  IC50: > 10 µM
[3]
  IC50: > 10 µM
[4]
  IC50: > 10 µM
[5]
  IC50: 6.86 µM
[6]
  IC50: 7.1 µM
[7]
  viability, T/C: 102%
[8]
  viability, T/C: 79.6%
[9]
  viability, T/C: 111%
[10]
  viability, T/C: 100%
[11]
  viability, T/C: 90.5%
[12]
  viability, T/C: 74.6%
[13]
  viability, T/C: 90%
[14]
  viability, T/C: 94%
[15]
  viability, T/C: 102%
[16]
  viability, T/C: 95.7%
[17]
  viability, T/C: 98.2%
[18]
  viability, T/C: 62.2%
[19]
  viability, T/C: 96%
[20]
  viability, T/C: 95.4%
[21]
  viability, T/C: 106%
[22]
  viability, T/C: 99.7%
[23]
  viability, T/C: 81.8%
[24]
  viability, T/C: 62.6%
[25]
  viability, T/C: 101%
[26]
  viability, T/C: 100%
[27]
  viability, T/C: 101%
[28]
  viability, T/C: 83.1%
[29]
  viability, T/C: 79.7%
[30]
  viability, T/C: 52.8%
[31]
  viability, T/C: 100%
[32]
  viability, T/C: 96.5%
[33]
  viability, T/C: 95.9%
[34]
  viability, T/C: 87.2%
[35]
  viability, T/C: 71.4%
[36]
  viability, T/C: 39.5%
[37]
  viability, T/C: 95.3%
[38]
  viability, T/C: 84.2%
[39]
  viability, T/C: 90.1%
[40]
  viability, T/C: 86.9%
[41]
  viability, T/C: 67.5%
[42]
  viability, T/C: 42.6%

## CNC(=O)c1ccc(N2C(=S)N(c3ccc(C#N)c(C(F)(F)F)c3)C(=O)C2(C)C)cc1F
Compound 0.0316 µM
  viability, T/C: 100% [middle of 4 runs]
Compound 0.1 µM
  viability, T/C: 102% [middle of 4 runs]
Compound 0.316 µM
  viability, T/C: 100% [middle of 4 runs]
Compound 1 µM
  viability, T/C: 93.9% and 100% and 102%
Compound 3.16 µM
  viability, T/C: 101% [middle of 4 runs]
Compound 10 µM
  viability, T/C: 104% [middle of 4 runs]
Curve of compound
  IC50: > 10 µM

## CC(=O)c1c(C)c2cnc(Nc3ccc(N4CCNCC4)cn3)nc2n(C2CCCC2)c1=O + COc1c(OCCCN2CCOCC2)ccc2c3n(c(=NC(=O)c4cnc(N)nc4)nc12)CCN3
[1]
  IC50: > 0.1 µM
[2]
  IC50: > 0.1 µM
[3]
  IC50: > 0.1 µM
[4]
  IC50: > 0.1 µM
[5]
  IC50: < 0.000316 µM
[6]
  IC50: < 0.000316 µM
Second compound 0.00316 µM, first compound 0.000316 µM
  viability, T/C: 91%
Second compound 0.00316 µM, first compound 0.001 µM
  viability, T/C: 98.3%
Second compound 0.00316 µM, first compound 0.00316 µM
  viability, T/C: 103%
Second compound 0.00316 µM, first compound 0.01 µM
  viability, T/C: 101%
[7]
  viability, T/C: 88.8%
[8]
  viability, T/C: 94.7%
Second compound 0.01 µM, first compound 0.000316 µM
  viability, T/C: 93.4%
Second compound 0.01 µM, first compound 0.001 µM
  viability, T/C: 95.9%
Second compound 0.01 µM, first compound 0.00316 µM
  viability, T/C: 90.7%
Second compound 0.01 µM, first compound 0.01 µM
  viability, T/C: 99.3%
[13]
  viability, T/C: 101%
[14]
  viability, T/C: 116%
Second compound 0.0316 µM, first compound 0.000316 µM
  viability, T/C: 103%
Second compound 0.0316 µM, first compound 0.001 µM
  viability, T/C: 100%
Second compound 0.0316 µM, first compound 0.00316 µM
  viability, T/C: 99.8%
Second compound 0.0316 µM, first compound 0.01 µM
  viability, T/C: 99.4%
[19]
  viability, T/C: 97.9%
[20]
  viability, T/C: 90.7%
Second compound 0.1 µM, first compound 0.000316 µM
  viability, T/C: 93.1%
Second compound 0.1 µM, first compound 0.001 µM
  viability, T/C: 92.7%
Second compound 0.1 µM, first compound 0.00316 µM
  viability, T/C: 96.1%
Second compound 0.1 µM, first compound 0.01 µM
  viability, T/C: 85.4%
[25]
  viability, T/C: 79.4%
[26]
  viability, T/C: 58.7%
Second compound 0.316 µM, first compound 0.000316 µM
  viability, T/C: 48.4%
Second compound 0.316 µM, first compound 0.001 µM
  viability, T/C: 36.3%
Second compound 0.316 µM, first compound 0.00316 µM
  viability, T/C: 40.9%
Second compound 0.316 µM, first compound 0.01 µM
  viability, T/C: 31.2%
[31]
  viability, T/C: 37.7%
[32]
  viability, T/C: 23.4%
Second compound 1 µM, first compound 0.000316 µM
  viability, T/C: 28.6%
Second compound 1 µM, first compound 0.001 µM
  viability, T/C: 20.7%
Second compound 1 µM, first compound 0.00316 µM
  viability, T/C: 18.9%
Second compound 1 µM, first compound 0.01 µM
  viability, T/C: 16.8%
[37]
  viability, T/C: 18.8%
[38]
  viability, T/C: 18.4%

## C=CC(=O)N1CCN(c2nc(=O)n(-c3c(C)ccnc3C(C)C)c3nc(-c4c(O)cccc4F)c(F)cc23)C(C)C1 (stereo not given) + COc1c(OCCCN2CCOCC2)ccc2c3n(c(=NC(=O)c4cnc(N)nc4)nc12)CCN3
[1]
  IC50: > 10 µM
[2]
  IC50: > 10 µM
[3]
  IC50: > 10 µM
[4]
  IC50: > 10 µM
[5]
  IC50: < 0.0316 µM
[6]
  IC50: < 0.0316 µM
[7]
  viability, T/C: 90.8%
[8]
  viability, T/C: 87.9%
[9]
  viability, T/C: 92.2%
[10]
  viability, T/C: 96.6%
[11]
  viability, T/C: 95.2%
[12]
  viability, T/C: 80.1%
[13]
  viability, T/C: 110%
[14]
  viability, T/C: 92.2%
[15]
  viability, T/C: 97.8%
[16]
  viability, T/C: 101%
[17]
  viability, T/C: 111%
[18]
  viability, T/C: 78%
[19]
  viability, T/C: 106%
[20]
  viability, T/C: 85.9%
[21]
  viability, T/C: 99.5%
[22]
  viability, T/C: 110%
[23]
  viability, T/C: 87.8%
[24]
  viability, T/C: 76.2%
[25]
  viability, T/C: 91.7%
[26]
  viability, T/C: 96.8%
[27]
  viability, T/C: 93.4%
[28]
  viability, T/C: 98.9%
[29]
  viability, T/C: 90.2%
[30]
  viability, T/C: 71.7%
[31]
  viability, T/C: 52.7%
[32]
  viability, T/C: 36.7%
[33]
  viability, T/C: 46.1%
[34]
  viability, T/C: 47.1%
[35]
  viability, T/C: 47.1%
[36]
  viability, T/C: 36.6%
[37]
  viability, T/C: 23.4%
[38]
  viability, T/C: 23.2%
[39]
  viability, T/C: 29.8%
[40]
  viability, T/C: 24.4%
[41]
  viability, T/C: 25.4%
[42]
  viability, T/C: 21%
